Experimental findings from patent publication US20250151723A1, “FUNGICIDAL COMBINATION, COMPOSITION, AND USE THEREOF” (UPL MAURITIUS LIMITED, priority 2023, published 2025) are described below.

Where two headings read alike, the source gives them in different places.

One test has as its system Botrytis. Nature of the test: Greenhouse trial on potted plants, Botrytis in pepper (Example 7).
The subject of another test is Early Blight. The settings on record: Tomato.
Another test concerns Target Spot. Nature of the test: Greenhouse trial on potted plants, target spot in soybean (Example 7).
Test [1] concerns cucumber downy mildew. Nature of the test: Greenhouse efficacy on cucumber downy mildew (Example 9). Type of test: in vivo.
Test [2] has as its system Alternaria solani in tomato (early blight disease). Nature of the test: Greenhouse efficacy on tomato early blight, lesion area at 4 dpi (Examples 1-3). Type of test: in vivo.
Test [3] concerns cucumber downy mildew. The test can be described thus: Greenhouse efficacy on cucumber downy mildew (Example 4). Type of test: in vivo.
In test [4] the test system is tomato early blight disease. Nature of the test: Greenhouse efficacy on tomato early blight disease (Example 6). In kind it is in vivo.
The subject of test [5] is tomato late blight disease. Type of test: in vivo.
The test system of test [6] is Soybean Target Spot (Corynespora cassicola). The test can be described thus: Greenhouse trial on potted soybean plants, target spot (Example 8). In kind it is in vivo.
For test [7], the system named is tomato early blight disease. The test can be described thus: Greenhouse trial on potted tomato plants, early blight (Example 10). Type of test: in vivo.
[8] abbreviates: 0.75 g/L, 30 g Cu/HA (standard).
The mark [9] stands for this setting: 17.5 g/L, 700 g Cu/HA (standard).

Description for Botrytis: Following trials were conducted on crops (potted plants) infected with the pathogen/disease in a greenhouse trial.

Take mancozeb: the “Efficacy (%)” value is recorded as 26.4% with Botrytis (0.0168 g/l, 1.26 gai/ha); −12.6% in the test on Early Blight (0.0187 g/l, 1.4 gai/ha); −6.6% in the test on Target Spot (0.0075 g/l, 0.56 gai/ha).
On to `O=S(=O)([O-])[O-].[Cu+2].[Cu+2].[Cu+2].[Cu+2].[OH-].[OH-].[OH-].[OH-].[OH-].[OH-]` [tribasic copper sulphate], for which the Observed efficacy % with cucumber downy mildew [1] (0.25 g/L, 10 g Cu/HA) amounted to 50.7%; in the test on cucumber downy mildew [1] (setting [8]) it was 96.7%; in test [2] (Table 1, 150 g/HA of Cu), 31%; in [2] (Table 1, 700 g/HA of Cu (standard treatment)), 88%; in [2] (Table 2, 0.75 g/L, 150 g Cu/HA) it was 40.2%; in test [2] (Table 2, 17.5 g/L, 700 g Cu/HA (standard)), 86.9%. For the same molecule, the Observed efficacy % in [2] (Table 3, 0.75 g/L) came to 23%; in test [2] (Table 3, 17.5 g/L (standard)), 75%; in test [4] (0.75 g/L, 30 g Cu/HA), 18.5%; in [4] (setting [9]), 57.6%; in test [5] (0.25 g/L, 10 g Cu/HA) it was 18.5%; in [5] (setting [8]), 62.9%. Besides, the Observed efficacy is listed as −7.6 in the test with cucumber downy mildew [3] (0.13 g/L, 5.2 g Cu/HA) and 94.9 with cucumber downy mildew [3] (setting [9]).
For `O=C1c2ccccc2C(=O)N1SC(Cl)(Cl)Cl` [folpet], the “Efficacy (%)” value is listed as 9.3% in the test with Botrytis (0.002 ml/l, 0.1 gai/ha); 34.7% in [6] (0.015 g/L, 0.63 g Folpet/ha); 98.4% in test [6] (5 g/L, 208.5 g Folpet/ha (full recommended dose)); 34.7% in the test with Target Spot (0.015 g/l, 0.625 gai/ha).
For `O=C([O-])c1ccccc1O.[K+]` [potassium salicylate], the “Efficacy (%)” value in the test on Botrytis (0.025 g/l, 0.31 gai/ha (mancozeb and captan sections)) was −5.2%; in the test with Botrytis (0.1 g/l, 1.25 gai/ha (mancozeb and captan sections)) it was −3.9%; in the test with Botrytis (folpet section, 0.1 g/l, 1.25 gai/ha) it was 12%; in [6] (25 mg/L, 0.31 g KSA/ha), 19.5%; in test [6] (100 mg/L, 1.25 g KSA/ha), 12.4%; in test [6] (410 mg/L, 5.13 g KSA/ha), 1.8%. For the same molecule, the “Efficacy (%)” value in [6] (820 mg/L, 10.27 g KSA/ha) is reported as −6.1%; in test [6] (1.64 g/L, 20.54 g KSA/ha), −11.4%; with Early Blight (0.41 g/l, 5.13 gai/ha), −3%; with Target Spot (captan and folpet sections, 0.025 g/l, 0.31 gai/ha) it was 19.5%; with Target Spot (captan and folpet sections, 0.1 g/l, 1.25 gai/ha), 12.4%; with Target Spot (captan and folpet sections, 0.41 g/l, 5.13 gai/ha), 1.8%. The “Efficacy (%)” value is −6.1% with Target Spot (captan and folpet sections, 0.82 g/l, 10.25 gai/ha); −11.4% in the test with Target Spot (captan and folpet sections, 1.64 g/l, 20.5 gai/ha); 16.8% in the test with Target Spot (mancozeb section, 0.025 g/l, 0.31 gai/ha); 12.6% with Target Spot (mancozeb section, 0.1 g/l, 1.25 gai/ha); 27.6% with Target Spot (mancozeb section, 0.41 g/l, 5.13 gai/ha); −3.8% in the test with Target Spot (mancozeb section, 0.82 g/l, 10.25 gai/ha). For the same molecule, in the test on Target Spot (mancozeb section, 1.64 g/l, 20.5 gai/ha), the “Efficacy (%)” value worked out at 6.3%. Moreover, the Observed efficacy % in the test on cucumber downy mildew [1] (103 mg/L, 1.29 g KSA/HA) is on record as 14.0%; in the test with cucumber downy mildew [1] (137 mg/L, 1.71 g KSA/HA) it was −1.1%; in the test with cucumber downy mildew [1] (207 mg/L, 2.59 g KSA/HA) it was −2.7%; in test [2] (Table 3, 410 mg/L), 5.8%; in test [7] (0.1 g/L, 1.25 gai/ha) it was 0.4%; in test [7] (0.41 g/L, 5.13 gai/ha), 2.3%. The Observed efficacy % in [7] (0.82 g/L, 10.25 gai/ha) was 37.4%; in test [7] (1.64 g/L, 20.5 gai/ha) it was 34.4%; in test [4] (310 mg/L, 3.875 g SA/HA) it was 2.2%; in test [4] (410 mg/L, 5.125 g SA/HA) it was 13.1%; in [4] (620 mg/L, 7.75 g/HA) it was 11.4%; in test [5] (137 mg/L, 1.7 g SA/HA) it was 15.2%. In addition, in the test on cucumber downy mildew [3] (71 mg/L, 0.89 g SA/HA), the Observed efficacy is given as 21.9.
As for `O=C(O)c1ccccc1O` [Salicylic acid], the Observed efficacy % is on record as 13.3% in [2] (Table 1, 20 g/HA of SA); 23.4% in test [2] (Table 2, 40 mg/L, 2.5 g SA/HA); 22.1% in test [2] (Table 2, 80 mg/L, 5 g SA/HA); −2.3% in test [2] (Table 2, 320 mg/L, 10 g/HA); −2.7% in test [2] (Table 2, 320 mg/L, 20 g/HA).
For the molecule `O=C1C2CC=CCC2C(=O)N1SC(Cl)(Cl)Cl` (stereo not shown) [captan], the “Efficacy (%)” value in the test on Botrytis (0.002 g/l, 0.16 gai/ha) was 20.4%; in test [6] (0.02 g/L, 1.56 g Captan/ha) it was 0.4%; in test [6] (6 g/L, 467 g Captan/ha (full recommended dose)), 100%.
